According to article PMC10108266, “Pharmacokinetic characteristics of golidocitinib, a highly selective JAK1 inhibitor, in healthy adult participants” (Frontiers in Immunology, 2023):
Where two headings read alike, the source gives them in different places.

Key:
[1] = JACKPOT3 single-ascending-dose plasma PK, healthy Chinese participants; type: in vivo, human; details: for AUC(0-inf) / Cmax / Vd/F / half-life / Tmax: human, plasma; for AUC(0-inf) / Cmax: geometric mean (CV%)
Text: This was a SAD study in healthy adult Asian participants, with a study design similar to the SAD cohorts of JACKPOT2 study. […] A total of 32 healthy participants were randomized to receive a single dose of golidocitinib or matched placebo (6:2).
After single oral administration, serial blood samples were obtained on Day 1 at pre-dose, and at 0.5, 1, 1.5, 2, 3, 4, 6, 8, 12, 24 (Day 2), 48 (Day 3), 72 (Day 4), 120 (Day 6), 168 (Day 8) and 216 (Day 10) hours post-dose for plasma PK analysis. Urine samples were collected during the collection intervals of 0-4, 4-10, 10-24, 24-48, 48-72, 72-96, 96-120, 120-144, and 144-168 hours following a single oral dose of 100 mg for urine PK analysis. Validated LC/MS methods were used for the determination of golidocitinib in human plasma and urine by Frontage Laboratories Inc. (Shanghai). This method was cross validated by Frontage Laboratories Inc. (New Jersey, USA) and met the acceptance criteria.

[2] = JACKPOT2 MAD urinary PK (Day 14); type: in vivo, human; details: for CLtotal: CL/F * F (0.7 from PBPK model); for Fe0-t: CLr/CLtotal; for Ae0-t: urine 0-24 hour on Day 14; for CL renal: human, oral
Text: In the SAD cohorts, serial blood samples were obtained on Day 1 at pre-dose, and at 0.5, 1, 1.5, 2, 3, 4, 6, 10, 14, 24 (Day 2), 48 (Day 3), 72 (Day 4), 120 (Day 6), 168 (Day 8) and 216 (Day 10) hours post-dose for plasma PK analysis. A similar sampling schedule was undertaken for the MAD cohorts on Day 1 and Day 14, with additional trough samples obtained on Days 5, Day 8, and Day 11. In the MAD cohorts, urine samples were collected on Day 14 during the collection intervals of 0-4, 4-10, and 10-24 hours following the last dose for urine PK analysis. Plasma and urine samples were analyzed by Frontage Laboratories Inc. (New Jersey, USA) using a validated LC/MS/MS bioanalytical method to determine golidocitinib concentrations. Cross validation in plasma was successful between Frontage Laboratories Inc. (New Jersey, USA) and Frontage Laboratories Inc. (Shanghai) using clinical samples and spiked quality control samples.
The mean (SD) amount of golidocitinib excreted in the urine over the collection period and renal clearance are presented in Table 2B . The average amount of golidocitinib excreted in the urine increased in an approximately dose proportional manner from 25 mg to 100 mg. […] The renal excretion fraction (Fe0-t) is helpful to compare the renal clearance (CLr) with total clearance (CLtotal) and determine the contribution of renal clearance in the drug elimination. It was calculated by the equation Fe0-t = CLr/CLtotal. The CL/F values were obtained from the two Phase I studies after the oral administration. Since the pharmacokinetics of golidocitinib after intravenous injection was not studied, the bioavailability value (F) was calculated by physiologically based pharmacokinetic (PBPK) model that incorporated compound specific information and independent prior knowledge on the physiology and biology at the organism.

Solubility in vitro = type: physicochemical
[3] = Overall safety and tolerability, JACKPOT2 and JACKPOT3; type: in vivo, human
Text: Safety assessments included monitoring of adverse events/serious adverse events, clinical safety laboratory tests (clinical chemistry, hematology, coagulation, and urinalysis tests), 12-lead ECG, vital signs (blood pressure, pulse rate, and respiratory rate), and pulmonary function. All adverse events were coded using the Medical Dictionary for Regulatory Activities (MedDRA), version 22.0. The CTCAE 5.0 was used to define the intensity of AEs.
The safety monitoring for both JACKPOT2 and JACKPOT3 was similar, included monitoring of adverse events/serious adverse events, clinical safety laboratory tests (clinical chemistry, hematology, coagulation, and urinalysis tests), 12-lead ECG, vital signs (blood pressure, pulse rate, and respiratory rate), and pulmonary function.

## COc1nn(C)cc1Nc1nccc(-c2c[nH]c3c(NC(=O)[C@@H](C)N4CCN(C)CC4)cccc23)n1 [golidocitinib, (2R)-N-[3-[2-[(3-Methoxy-1-methyl-pyrazol-4-yl)amino]pyrimidin-4-yl]-1H-indol-7-yl]-2-(4-methylpiperazin-1-yl)propenamide]
[1]; oral, single dose 25 mg
  AUC(0-inf): 1230 ng·h/mL
  Cmax: 40.8 ng/mL
[1]; oral, single dose 25 mg, mean (SD), read-out: Vz/F
  Vd/F: 1040 L
[1]; oral, single dose 25 mg, median (min, max), read-out: t1/2 (converted)
  half-life: 38 h
[1]; oral, single dose 25 mg, median (min, max), read-out: tmax
  Tmax: 3 h
[1]; oral, single dose 50 mg
  AUC(0-inf): 2370 ng·h/mL
  Cmax: 75 ng/mL
[1]; oral, single dose 50 mg, mean (SD), read-out: Vz/F
  Vd/F: 1160 L
[1]; oral, single dose 50 mg, median (min, max), read-out: t1/2 (converted)
  half-life: 39.1 h
[1]; oral, single dose 50 mg, median (min, max), read-out: tmax
  Tmax: 2 h
[1]; oral, single dose 100 mg
  AUC(0-inf): 4740 ng·h/mL
  Cmax: 184 ng/mL
[1]; oral, single dose 100 mg, mean (SD), read-out: Vz/F
  Vd/F: 826 L
[1]; oral, single dose 100 mg, median (min, max), read-out: t1/2 (converted)
  half-life: 28.3 h
[1]; oral, single dose 100 mg, median (min, max), read-out: tmax
  Tmax: 2 h
[1]; oral, single dose 150 mg
  AUC(0-inf): 8340 ng·h/mL
  Cmax: 280 ng/mL
[1]; oral, single dose 150 mg, mean (SD), read-out: Vz/F
  Vd/F: 1210 L
[1]; oral, single dose 150 mg, median (min, max), read-out: t1/2 (converted)
  half-life: 46.7 h
[1]; oral, single dose 150 mg, median (min, max), read-out: tmax
  Tmax: 1.75 h
[1]; single oral administration, Chinese participants, read-out: mean Vz/F
  Vd/F: 826 to 1210 L
[1]; single oral administration, across the dose range, Chinese participants, read-out: median terminal half-life (t1/2)
  half-life: 28.3 to 46.7 h
[1]; single oral administration, across the dose range, Chinese participants, read-out: median tmax
  Tmax: 1.75 to 3 h
[1]; single dose 50 mg, mean (SD)
  CL/F: 21.2 (13.1) L/hr
[1]; single dose 100 mg, mean (SD)
  CL/F: 21.4 (16.5) L/hr
[1]; single dose 150 mg, mean (SD)
  CL/F: 18.1 (14.2) L/hr
[2]; 25 mg once daily 14 days
  CLtotal: 15.2 L/h
  Fe0-t: 20.9%
[2]; 25 mg once daily 14 days, mean (SD)
  Ae0-t: 4.94 (1.23) mg
[2]; 50 mg once daily 14 days
  CLtotal: 15.5 L/h
  Fe0-t: 23.9%
[2]; 50 mg once daily 14 days, mean (SD)
  Ae0-t: 11.7 (1.69) mg
[2]; 100 mg once daily 14 days
  CLtotal: 13.4 L/h
  Fe0-t: 20.2%
[2]; 100 mg once daily 14 days, mean (SD)
  Ae0-t: 19.2 (4.11) mg
[2]; urine and plasma, 25 mg once daily 14 days, Ae0-t/AUC0-t, mean (SD), read-out: CLr (converted)
  CL renal: 53 mL/min
[2]; urine and plasma, 50 mg once daily 14 days, Ae0-t/AUC0-t, mean (SD), read-out: CLr (converted)
  CL renal: 61.5 mL/min
[2]; urine and plasma, 100 mg once daily 14 days, Ae0-t/AUC0-t, mean (SD), read-out: CLr (converted)
  CL renal: 45.2 mL/min
[2]; urine, US participants, 25 mg to 100 mg, read-out: mean renal clearance
  CL renal: 45.2 to 61.5 mL/min
Solubility in vitro
  solubility: high solubility
[3]; healthy participants, 5 mg to 150 mg single dose, 25 mg to 100 mg multiple dose
  tolerability: well-tolerated
[3]; in vivo
  serious adverse events: No serious adverse events were reported
[3]; investigators' assessment
  CTCAE grade 3 or higher drug-related TEAE: no CTCAE grade 3 or higher drug-related TEAE was reported
